{"source": "ChEMBL document CHEMBL3045029", "about": "“Synthesis and antimicrobial activities of some isoxazolyl thiazolyl pyrazoles” (2012)", "format_in_all_cases": "functional", "key": {"Aspergillus niger": {"tested_on": "Aspergillus niger", "test": "Antifungal activity against Aspergillus niger MTCC 282 after 120 hr by serial dilution method"}, "Escherichia coli": {"tested_on": "Escherichia coli", "test": "Antibacterial activity against Escherichia coli MTCC 42 after 24 hr by serial dilution method"}, "Candida albicans": {"tested_on": "Candida albicans", "test": "Antifungal activity against Candida albicans MTCC 183 after 48 hr by serial dilution method"}, "Staphylococcus aureus": {"tested_on": "Staphylococcus aureus", "test": "Antibacterial activity against Staphylococcus aureus MTCC 7443 after 24 hr by serial dilution method"}, "Bacillus subtilis": {"tested_on": "Bacillus subtilis", "test": "Antibacterial activity against Bacillus subtilis MTCC 441 after 24 hr by serial dilution method"}}, "data": [{"smiles": "C/C(=N\\Nc1nc(-c2ccccc2)cs1)c1c(O)cc(C)oc1=O", "values": [{"measurement": "-logMIC", "setting": "Aspergillus niger", "value": 1.435}, {"measurement": "-logMIC", "setting": "Escherichia coli", "value": 1.435}, {"measurement": "-logMIC", "setting": "Candida albicans", "value": 1.435}, {"measurement": "-logMIC", "setting": "Staphylococcus aureus", "value": 1.737}, {"measurement": "-logMIC", "setting": "Bacillus subtilis", "value": 1.435}]}, {"smiles": "C/C(=N\\Nc1nc(-c2ccc(C)cc2)cs1)c1c(O)cc(C)oc1=O", "values": [{"measurement": "-logMIC", "setting": "Aspergillus niger", "value": 1.435}, {"measurement": "-logMIC", "setting": "Escherichia coli", "value": 1.453}, {"measurement": "-logMIC", "setting": "Candida albicans", "value": 1.152}, {"measurement": "-logMIC", "setting": "Staphylococcus aureus", "value": 1.453}, {"measurement": "-logMIC", "setting": "Bacillus subtilis", "value": 1.453}]}, {"smiles": "COc1ccc(-c2csc(N/N=C(\\C)c3c(O)cc(C)oc3=O)n2)cc1", "values": [{"measurement": "-logMIC", "setting": "Aspergillus niger", "value": 1.472}, {"measurement": "-logMIC", "setting": "Escherichia coli", "value": 1.472}, {"measurement": "-logMIC", "setting": "Candida albicans", "value": 1.171}, {"measurement": "-logMIC", "setting": "Staphylococcus aureus", "value": 1.472}, {"measurement": "-logMIC", "setting": "Bacillus subtilis", "value": 1.171}]}, {"smiles": "C/C(=N\\Nc1nc(-c2ccc(Cl)cc2)cs1)c1c(O)cc(C)oc1=O", "values": [{"measurement": "-logMIC", "setting": "Aspergillus niger", "value": 1.478}, {"measurement": "-logMIC", "setting": "Escherichia coli", "value": 1.478}, {"measurement": "-logMIC", "setting": "Candida albicans", "value": 1.478}, {"measurement": "-logMIC", "setting": "Staphylococcus aureus", "value": 1.478}, {"measurement": "-logMIC", "setting": "Bacillus subtilis", "value": 1.478}]}, {"smiles": "CC(=O)CC(=O)c1c(C)[nH]n(-c2nc(-c3ccccc3)cs2)c1=O", "values": [{"measurement": "-logMIC", "setting": "Aspergillus niger", "value": 1.435}, {"measurement": "-logMIC", "setting": "Escherichia coli", "value": 1.435}, {"measurement": "-logMIC", "setting": "Candida albicans", "value": 1.435}, {"measurement": "-logMIC", "setting": "Staphylococcus aureus", "value": 1.435}, {"measurement": "-logMIC", "setting": "Bacillus subtilis", "value": 1.435}]}, {"smiles": "COc1ccc(-c2csc(-n3[nH]c(C)c(-c4cc(C)no4)c3=O)n2)cc1", "values": [{"measurement": "-logMIC", "setting": "Aspergillus niger", "value": 1.771}, {"measurement": "-logMIC", "setting": "Escherichia coli", "value": 1.47}, {"measurement": "-logMIC", "setting": "Candida albicans", "value": 1.47}, {"measurement": "-logMIC", "setting": "Staphylococcus aureus", "value": 1.771}, {"measurement": "-logMIC", "setting": "Bacillus subtilis", "value": 1.771}]}, {"smiles": "Cc1cc(-c2c(C)[nH]n(-c3nc(-c4ccc(Cl)cc4)cs3)c2=O)on1", "values": [{"measurement": "-logMIC", "setting": "Aspergillus niger", "value": 1.474}, {"measurement": "-logMIC", "setting": "Escherichia coli", "value": 1.775}, {"measurement": "-logMIC", "setting": "Candida albicans", "value": 1.477}, {"measurement": "-logMIC", "setting": "Staphylococcus aureus", "value": 2.077}, {"measurement": "-logMIC", "setting": "Bacillus subtilis", "value": 1.775}]}, {"smiles": "Cc1cc(-c2c(C)[nH]n(-c3nc(-c4ccccc4)cs3)c2=O)on1", "values": [{"measurement": "-logMIC", "setting": "Aspergillus niger", "value": 1.432}, {"measurement": "-logMIC", "setting": "Escherichia coli", "value": 1.733}, {"measurement": "-logMIC", "setting": "Candida albicans", "value": 1.432}, {"measurement": "-logMIC", "setting": "Staphylococcus aureus", "value": 1.733}, {"measurement": "-logMIC", "setting": "Bacillus subtilis", "value": 1.733}]}, {"smiles": "Cc1ccc(-c2csc(-n3[nH]c(C)c(-c4cc(C)no4)c3=O)n2)cc1", "values": [{"measurement": "-logMIC", "setting": "Aspergillus niger", "value": 1.75}, {"measurement": "-logMIC", "setting": "Escherichia coli", "value": 1.75}, {"measurement": "-logMIC", "setting": "Candida albicans", "value": 1.449}, {"measurement": "-logMIC", "setting": "Staphylococcus aureus", "value": 1.75}, {"measurement": "-logMIC", "setting": "Bacillus subtilis", "value": 1.75}]}, {"smiles": "OC(Cn1cncn1)(Cn1cncn1)c1ccc(F)cc1F", "note": "[FLUCONAZOLE]", "values": [{"measurement": "-logMIC", "setting": "Aspergillus niger", "value": 3}, {"measurement": "-logMIC", "setting": "Candida albicans", "value": 3}]}, {"smiles": "CCn1cc(C(=O)O)c(=O)c2cc(F)c(N3CCNCC3)cc21", "note": "[NORFLOXACIN]", "values": [{"measurement": "-logMIC", "setting": "Escherichia coli", "value": 2.698}, {"measurement": "-logMIC", "setting": "Staphylococcus aureus", "value": 2.698}, {"measurement": "-logMIC", "setting": "Bacillus subtilis", "value": 2.698}]}]}
